Measured values reported in patent US5162354A, “3-halo-5-halomethyl-2-oxazolidinones and their use as microbicides” (Buckman Laboratories International, Inc., priority 1991, dated 1992).
≈ marks a conversion by molar mass, not a printed value. Like-named read-outs stand apart in the source and are kept apart here.

Columns and labels:
Assay type in all cases: cell-based
Chlorella pyrenoidosa = experiment: Growth inhibiting activity against algae in Difco Algae Broth (Chlorella pyrenoidosa); conditions: Auxenochlorella pyrenoidosa, 672 h
Method: (§1) The growth inhibiting activity of the method of the invention against the three algae Chlorella pyrenoidosa, Chlorococcum hypnosporum and Phormidium inundatum was evaluated in Difco Algae Broth, the content of which was as follows:
(§2) Forty-gram portions of the algae medium were added to 250 mL Pyrex Erlenmeyer flasks fitted with loose metal caps and then sterilized. Each of the following substances was then added to the flasks in the order listed:
(§3) 1. Sterile algae medium as required to bring the total weight of the contents of each flask to 50 grams, after allowing for all subsequent additions specified below.
(§4) 2. A solution of one of compounds 1-4 or of a control agent to be evaluated in each test, to give the concentration desired in parts per million by weight.
(§5) 3. Chlorella pyrenoidosa, Chlorococcum hypnosporum and Phormidium inundatum in amounts sufficient to give excellent growth in the controls after 14 days. This was achieved by adding 1 milliliter of a 14 day old culture having luxuriant growth. The Chlorella pyrenoidosa culture was obtained from American Type Culture Collection No. 7516; Chlorococcum hypnosporum, from the University of TX at Austin; and Phormidium inundatum, WI No. 1093, from the University of WA.
(§6) As a control experiment, WSCP was used as a positive control agent. WSCP is a known toxicant which kills C. pyrenoidosa at 2 ppm, C. hypnosporum at 2ppm, and P. inundatum at 10 ppm. Control experiments were also carried out where no toxicants were employed. In the algicidal tests, the growth of algae in the nutrient medium is lush green and can be seen with the naked eye. Because the minimum inhibitory concentrations of the compounds in this example are those which result in complete inhibition, evaluation of the test results is not subjective.
(§7) After the inoculum of the test algae was added, the flasks were incubated at a temperature of 28°±2° C. under fluorescent illumination of 250 foot-candle intensity (8 hours light, 16 hours darkness) for a period adequate for growth in the controls (those portions of medium which contained no toxicant). Observations of growth were made at 7-day intervals. Minimum inhibitory concentrations are those that prevented complete growth after 28 days.

Chlorococcum hypnosporum = experiment: Growth inhibiting activity against algae in Difco Algae Broth (Chlorococcum hypnosporum); conditions: 672 h
Method: as §1, §2, §3, §4, §5, §6, §7

Enterobacter aerogenes = experiment: Basal salts method, minimum inhibitory concentration against Enterobacter aerogenes; conditions: Klebsiella aerogenes, at least 80% kill
Method: Compounds 1-4 of Examples 3-6 of the present invention were tested by the basal salts method described in U.S. Pat. No. 2,881,070 at column 5, beginning at line 12 and extending to column 6, line 53. […] The minimum inhibitory concentrations are those in which a percentage kill of at least 80% is obtained.

Aspergillus niger = experiment: Growth inhibiting activity on the fungus Aspergillus niger; conditions: Aspergillus niger pH 6.0; completely prevented growth; read-out: Minimum inhibitory concentration against fungi
Method: The microorganism growth inhibiting activity of compounds 1-4 on the fungus Aspergillus niger was evaluated. The method is described in U.S. Pat. No. 4,945,109, column 5 beginning at line 47 to column 6, line 33. The disclosure of U.S. Pat. No. 4,945,109 is incorporated herein by reference.

Phormidium inundatum = experiment: Growth inhibiting activity against algae in Difco Algae Broth (Phormidium inundatum); conditions: 672 h
Method: as §1, §2, §3, §4, §5, §6, §7

[1] = pH 7, read-out: Minimum inhibitory concentration against algae

| SMILES | MIC (Chlorella pyrenoidosa; [1]) [µg/mL] | MIC (Chlorococcum hypnosporum; [1]) [µg/mL] | MIC (Enterobacter aerogenes; pH 6.0) [µg/mL] | MIC (Enterobacter aerogenes; pH 8.0) [µg/mL] | MIC (Aspergillus niger) [µg/mL] | MIC (Phormidium inundatum; [1]) [µg/mL] | MIC (Chlorella pyrenoidosa; C. pyrenoidosa, pH 7, 28 days, read-out: Minimum inhibitory concentration against algae) [µg/mL] | MIC (Chlorococcum hypnosporum; C. hypnosporum, pH 7, 28 days, read-out: Minimum inhibitory concentration against algae) [µg/mL] | MIC (Phormidium inundatum; P. inundatum, pH 7, 28 days, read-out: Minimum inhibitory concentration against algae) [µg/mL] |
| --- | --- | --- | --- | --- | --- | --- | --- | --- | --- |
| O=C1OC(CCl)CN1Cl (stereo not drawn) [Compound 2, 3-Chloro-5-chloromethyl-2-oxazolidinone] | 1 (≈ 5.88 µM) | 1 (≈ 5.88 µM) | 8 | 10 | 128 (≈ 753 µM) | 1 (≈ 5.88 µM) | – | – | – |
| O=C1OC(CBr)CN1Cl (stereo not drawn) [Compound 4, 3-Chloro-5-bromomethyl-2-oxazolidinone] | 4 (≈ 18.7 µM) | 8 (≈ 37.3 µM) | 10 | 20 | 100 (≈ 466 µM) | 8 (≈ 37.3 µM) | – | – | – |
| O=C1OC(CBr)CN1Br (stereo not drawn) [Compound 3, 3-Bromo-5-bromomethyl-2-oxazolidinone] | – | – | 2 | 4 | 100 (≈ 386 µM) | – | 2 (≈ 7.73 µM) | 8 (≈ 30.9 µM) | 2 (≈ 7.73 µM) |
